Activity calls are given as the source filed them. The rule behind the calls is not given here.
How the values were obtained:
RKO [1] = assay: Induction of apoptosis in human RKO cells assessed as increase in cytochrome C level at 1.1 to 10 uM incubated for 24 hrs by western blot assay; assay type: functional, cell-based; conditions: dose 1.1-10 µM
RAW264.7 = assay: Antiinflammatory activity in mouse RAW264.7 cells assessed as reduction in LPS-induced NF-kappaB nuclear translocation at 6.6 uM incubated for 1 hrs followed by LPS stimulation for 1 hrs by DAPI staining based immunofluorescence assay; assay type: functional, cell-based; conditions: time 2.0 hrs
RKO [2] = assay: Induction of apoptosis in human RKO cells assessed as increase in Bax/Bcl-2 ratio expression at 1.1 to 10 uM incubated for 24 hrs by western blot assay; assay type: functional, cell-based; conditions: dose 1.1-10 µM
[3] = Toxicity in BALB/c mouse xenografted with mouse CT26.WT assessed as pathological changes in heart at 100 mg/kg, ip twice daily and measured after 14 days by hematoxylin and eosin staining based microscopic analysis; assay type: organism-based; conditions: in vivo, 336 h, time 14 day
CT26.WT [4] = assay: Anti-tumor activity against mouse CT26.WT xenografted in BALB/c mouse assessed as increase in apoptosis at 100 mg/kg, ip twice daily and measured after 14 days by TUNEL staining based assay; assay type: functional, organism-based; conditions: time 14.0 day
RKO [5] = assay: Induction of mitochondrial membrane loss in human RKO at 1.1 to 10 uM and measured after 36 hrs by TMRE dye based flow cytometry; assay type: functional, cell-based; conditions: dose 1.1-10 µM, DDE = dose-dependent effect
HGC-27 [6] = assay: Anti-metastasis activity against human HGC-27 cells assessed as reduction in MMP-9 expression level at 3.3 to 10 uM for 24 hrs by western blot analysis; assay type: functional, cell-based; conditions: dose 3.3-10 µM
RKO [7] = assay: Induction of apoptosis in human RKO cells assessed as increase in caspase-3 activity at 1.1 uM incubated for 36 hrs by flow cytometry (Rvb= 1.08%); assay type: functional
[8] = molecular target: T1, Nuclear factor NF-kappa-B complex (Homo sapiens) (UniProt Q00653+P19838+Q04206); assay: Inhibition of NF-kappaB activation in human RKO cells assessed as downregulation of NF-kappaB phosphorylation at 10 uM for 48 hrs by DAPI staining based immunofluorescence assay; assay type: cell-based
RKO [9] = assay: Antiproliferative activity against human RKO cells assessed as cell viability at <= 0.41 uM for 48 hrs by MTT assay; assay type: functional; conditions: up to 0.41 µM
CT26.WT [10] = assay: Anti-tumor activity against mouse CT26.WT xenografted in BALB/c mouse assessed as decrease in COX-2 expression level in tumor tissue at 100 mg/kg, ip twice daily and measured after 14 days by immunohistochemical analysis; assay type: functional, organism-based; conditions: time 14.0 day
[11] = AUC (0 to t) in Sprague-Dawley rat at 100 mg/kg, ip and measured upto 8 hrs by LC-MS/MS analysis; assay type: ADME, organism-based; design: dose 100 mg/kg, time < 8 hrs, route ip; conditions: in vivo
HGC-27 [12] = assay: Induction of apoptosis in human HGC-27 cells assessed as increase in cytochrome C level at 1.1 to 10 uM incubated for 24 hrs by western blot assay; assay type: functional, cell-based; conditions: dose 1.1-10 µM
HGC-27 [13] = assay: Antiproliferative activity against human HGC-27 cells assessed as clone formation at 0.37 to 3.3 uM incubated for 4 days by crystal violet staining based analysis; assay type: functional, cell-based; conditions: dose 0.37-3.3 µM, time 4.0 day
RKO [14] = assay: Anti-migration activity against human RKO cells assessed as inhibition of cell migration at 0.37 uM and measured after 24 hrs by wound healing assay; assay type: functional, cell-based
[15] = Cmax in Sprague-Dawley rat at 100 mg/kg, ip and measured upto 8 hrs by LC-MS/MS analysis; assay type: ADME, organism-based; design: time < 8 hrs, dose 100 mg/kg, route ip; conditions: in vivo
SGC-7901 = assay: Antiproliferative activity against human SGC-7901 cells assessed as reduction in cell proliferation incubated for 48 hrs by MTT assay; assay type: functional, cell-based; conditions: SGC-7901, 48 h
HGC-27 [16] = assay: Induction of apoptosis in human HGC-27 cells assessed as increase in caspase-3 activity at 3.3 uM incubated for 36 hrs by flow cytometry (Rvb= 9.39%); assay type: functional
[17] = molecular target: T1, Nuclear factor NF-kappa-B complex (Homo sapiens); assay: Inhibition of NF-kappaB activation in human HT-29 cells assessed as reduction in TNFalpha-stimulated NF-kappaB nuclear translocation at 10 uM for 24 hrs followed by TNF- alpha stimulation for 1 hrs by DAPI staining based immunofluorescence assay; assay type: cell-based; conditions: time 25.0 hrs
HGC-27 [18] = assay: Effect on cell morphology in human HGC-27 cells assessed as condensed morphology at 10 uM incubated for 48 hrs by giemsa staining based microscopic analysis; assay type: functional
RKO [19] = assay: Induction of apoptosis in human RKO cells assessed as increase in cleaved caspase-9 expression at 1.1 to 10 uM incubated for 24 hrs by western blot assay; assay type: functional, cell-based; conditions: dose 1.1-10 µM
CT26.WT [20] = assay: Antiproliferative activity against mouse CT26.WT cells assessed as reduction in cell proliferation incubated for 48 hrs by MTT assay; assay type: functional, cell-based
RKO [21] = assay: Effect on cell morphology in human RKO cells assessed as appearance of smaller cells at 10 uM incubated for 48 hrs by giemsa staining based microscopic analysis; assay type: functional
[22] = Acute toxicity in Kunming mouse assessed as lethal dose at 100 mg/kg,ip and measured upto 14 days; assay type: organism-based; conditions: in vivo, time < 14 day

T1 sequence (P19838 whole entry, looked up): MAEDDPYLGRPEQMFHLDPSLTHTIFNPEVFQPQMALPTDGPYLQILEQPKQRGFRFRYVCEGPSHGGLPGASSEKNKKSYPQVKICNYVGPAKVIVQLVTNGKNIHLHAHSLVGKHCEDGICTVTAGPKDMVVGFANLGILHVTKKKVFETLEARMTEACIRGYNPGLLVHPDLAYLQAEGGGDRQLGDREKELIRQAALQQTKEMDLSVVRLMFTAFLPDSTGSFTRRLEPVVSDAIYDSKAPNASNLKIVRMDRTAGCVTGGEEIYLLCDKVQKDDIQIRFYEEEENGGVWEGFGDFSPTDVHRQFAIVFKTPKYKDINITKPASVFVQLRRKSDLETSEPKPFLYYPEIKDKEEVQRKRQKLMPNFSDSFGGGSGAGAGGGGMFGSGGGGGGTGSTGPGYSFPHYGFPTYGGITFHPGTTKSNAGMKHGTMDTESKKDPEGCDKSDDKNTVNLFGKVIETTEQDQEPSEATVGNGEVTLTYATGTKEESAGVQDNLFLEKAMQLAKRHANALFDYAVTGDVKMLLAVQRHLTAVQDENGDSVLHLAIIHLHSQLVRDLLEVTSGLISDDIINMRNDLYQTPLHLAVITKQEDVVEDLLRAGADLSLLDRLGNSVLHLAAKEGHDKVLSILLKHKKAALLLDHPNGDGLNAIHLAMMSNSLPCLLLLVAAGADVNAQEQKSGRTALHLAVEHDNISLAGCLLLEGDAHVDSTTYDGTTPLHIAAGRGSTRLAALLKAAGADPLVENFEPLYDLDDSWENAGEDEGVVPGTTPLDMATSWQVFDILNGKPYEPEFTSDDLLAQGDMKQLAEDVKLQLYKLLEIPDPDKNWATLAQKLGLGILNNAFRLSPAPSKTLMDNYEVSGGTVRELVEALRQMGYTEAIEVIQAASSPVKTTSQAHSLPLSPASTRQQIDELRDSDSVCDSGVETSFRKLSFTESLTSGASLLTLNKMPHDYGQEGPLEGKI
T1 sequence (Q00653 whole entry, looked up): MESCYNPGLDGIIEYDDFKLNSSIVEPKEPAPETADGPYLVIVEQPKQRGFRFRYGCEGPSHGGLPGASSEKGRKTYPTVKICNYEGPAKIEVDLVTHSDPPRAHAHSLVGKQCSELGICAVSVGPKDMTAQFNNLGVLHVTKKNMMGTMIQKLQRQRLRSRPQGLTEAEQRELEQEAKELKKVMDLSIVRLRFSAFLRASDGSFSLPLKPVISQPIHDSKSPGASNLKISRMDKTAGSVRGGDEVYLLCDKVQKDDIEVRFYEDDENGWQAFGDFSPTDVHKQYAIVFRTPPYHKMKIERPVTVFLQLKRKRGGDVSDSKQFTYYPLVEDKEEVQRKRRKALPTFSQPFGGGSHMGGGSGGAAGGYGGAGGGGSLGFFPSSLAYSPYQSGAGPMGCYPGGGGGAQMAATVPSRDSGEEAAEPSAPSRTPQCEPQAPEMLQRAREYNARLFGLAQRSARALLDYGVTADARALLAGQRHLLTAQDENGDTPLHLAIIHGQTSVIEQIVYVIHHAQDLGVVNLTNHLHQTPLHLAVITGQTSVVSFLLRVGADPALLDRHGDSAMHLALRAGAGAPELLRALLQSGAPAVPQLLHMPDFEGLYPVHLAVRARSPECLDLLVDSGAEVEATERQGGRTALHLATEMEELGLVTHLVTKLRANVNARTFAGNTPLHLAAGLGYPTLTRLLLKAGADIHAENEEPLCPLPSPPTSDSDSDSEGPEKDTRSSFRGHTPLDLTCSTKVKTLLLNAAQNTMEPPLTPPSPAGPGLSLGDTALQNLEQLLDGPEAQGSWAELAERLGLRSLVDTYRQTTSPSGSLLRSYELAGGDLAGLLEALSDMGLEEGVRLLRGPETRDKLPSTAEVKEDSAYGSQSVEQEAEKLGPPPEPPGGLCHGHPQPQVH
T1 sequence (Q04206 whole entry, looked up): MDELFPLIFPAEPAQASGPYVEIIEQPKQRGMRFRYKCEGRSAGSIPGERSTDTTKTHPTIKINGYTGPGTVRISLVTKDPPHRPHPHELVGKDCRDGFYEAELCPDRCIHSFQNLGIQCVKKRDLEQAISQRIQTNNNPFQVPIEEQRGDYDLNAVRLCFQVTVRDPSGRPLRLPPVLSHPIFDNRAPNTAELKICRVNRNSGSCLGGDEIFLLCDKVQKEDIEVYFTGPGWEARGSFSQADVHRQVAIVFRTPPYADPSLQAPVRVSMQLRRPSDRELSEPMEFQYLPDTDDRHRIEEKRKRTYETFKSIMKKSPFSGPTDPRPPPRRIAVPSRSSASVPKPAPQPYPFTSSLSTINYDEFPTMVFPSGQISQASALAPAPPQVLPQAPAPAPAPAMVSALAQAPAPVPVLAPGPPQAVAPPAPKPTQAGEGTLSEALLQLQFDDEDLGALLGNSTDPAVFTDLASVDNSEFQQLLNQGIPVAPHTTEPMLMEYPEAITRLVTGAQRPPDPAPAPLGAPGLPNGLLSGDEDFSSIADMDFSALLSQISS

Question: Which results are given for Cc1c(Cl)cccc1Nc1ccc(F)cc1C(=O)NCc1ccc(O)c(O)c1?
Answer: Activity (RKO [1]): Active; Activity (RAW264.7): Active; Activity (RKO [2]): Active; Activity [3]: Non-Toxic; Activity (CT26.WT [4]): Active; Activity (RKO [5]): Dde; Activity (HGC-27 [6]): Active; Activity (RKO [7]): 33.77%; inhibition [8]: Active; Activity (RKO [9]): >80%; Activity (CT26.WT [10]): Active; AUC(0-t) at 8 h [11]: 18200 ng·h/mL; Activity (HGC-27 [12]): Active; Activity (HGC-27 [13]): Active; Activity (RKO [14]): Active; Cmax [15]: 20200 ng/mL; IC50 (SGC-7901): 15 µM; Activity (HGC-27 [16]): 68.8%; inhibition [17]: Active; Activity (HGC-27 [18]): Active; Activity (RKO [19]): Active; IC50 (CT26.WT [20]): 3.04 µM; Activity (RKO [21]): Active; LD50 at 336 h [22]: > 100 mg/kg

From ChEMBL document CHEMBL5137070, “N-2-(Phenylamino) Benzamide Derivatives as Dual Inhibitors of COX-2 and Topo I Deter Gastrointestinal Cancers via Targeting Inflammation and Tumor Progression” (J Med Chem, 2022)
